# Source: US7465541B1, “Vitamin D3-responsive sequences located 5′-upstream of p27/kip 1 gene and methods of screening for pharmaceutical agents using the sequences” (Toshiyuki Sakai, priority 2000, dated 2008)
# What was measured:
# NF-I = assay: Gel shift assay, NF-I binding to NF-Iwild probe, nuclear extracts of treated U937 cells; format: cell-based, human; settings: U937 cells treated 36 h, versus vehicle
# Protocol: Two μg of each nuclear extract was incubated with the −555/−512wild probe (lanes 1-3), −534/−512wild probe (lanes 4-6), or NF-Iwild probe (lanes 7-12) to detect Sp1, NF-Y, and NF-I, respectively.
# Nuclear extracts of U937 cells were prepared according to the procedure of Andrew and Faller (Andrews, N. C. and Faller, D. V. (1991) Nucleic Acids Res., 19, 2499). […] Gel shift assays were carried out as described by Orita et al. (Orita, T. et al. (1997) J. Biol. Chem., 272, 23216-23223). The reaction mixture for the gel shift assay (25 μl final volume) contained 20 mM Tris-HCl (pH 8.0), 100 mM KCl, 10% glycerol, 1 μg of poly(dl-dC), and 2 μg of nuclear extract. After preincubation for 15 minutes at 23° C., probe DNA (approximately 0.5 ng, 10,000 cpm) was added to the mixture, and the binding reaction was allowed to proceed at 23° C. for 20 min. The resulting product was then resolved by electrophoresis on 4% acrylamide-bisacrylamide (29:1), 0.5×TBE nondenaturing gel at 10 V/cm for 150 min. Competition analyses were performed by mixing the indicated amount of appropriate competitor DNA to the binding reaction prior to addition of nuclear extracts. In supershift experiments, antibodies against Sp1 (sc-59X; Santa Cruz), Sp3 (sc-644X; Santa Cruz), and C/EBP-α (sc-7204X; Santa Cruz) were purchased. The antibodies against NF-YA, -YB, and -YC (IgG fraction) were kindly provided by Drs. […]
# p27^Kip1 mRNA = p27^Kip1 mRNA induction in U937 cells (Northern analysis); format: cell-based, human; settings: peaked between 24 h and 48 h, compared with 0 h
# Protocol: Human cervical cancer cell line, C33A, human osteosarcoma cell lines, U2OS and MG63 were maintained in Dulbecco modified Eagle media containing 10% (v/v) fetal bovine serum (FBS) and cultivated in an atmosphere of 5% CO2 at 37° C. Human myelomonocytic cell line U937 (a generous gift from Dr. Y. Honma of the Saitama Cancer Research Institute, Saitama, Japan) was cultivated in Rosweli Park Memorial Institute (RPMI) 1640 media supplemented with 10% (v/v) fatal bovine serum in an atmosphere of 5% CO2.
# For this purpose, a series of 5′ deletion constructs of the p27^Kip1 promoter were examined.
# [1] = tested on: −555/−512 region of the human p27^Kip1 promoter fused to SV40 early promoter; assay: Luciferase reporter assay with −555/−512 sequence upstream of SV40 early promoter in U937 cells; format: cell-based
# Source text: Furthermore, the present inventors generated constructs containing four tandem copies of the specific sequence of the p27^Kip1 promoter fused to a minimal promoter. A double-stranded 52-bp DNA fragment containing a 44-bp sequence corresponding to the −555/−512 region of the human p27^Kip1 promoter and linker sites (indicated by lower case letters below) at both ends was generated from two oligonucleotides. The top strand (5′-aggg[…]-3′) (SEQ ID NO: 5) and the bottom strand (5′-ccct[…]-3′) (SEQ ID NO: 6) were annealed, ligated, blunted and subcloned into the SmaI site upstream of the SV40 early promoter in the PicaGene Promoter Vector 2 (Nippon Gene, Tokyo, Japan) in a forward or reverse orientation to generate PGPV2[−555/−512wild]4 and PGPV2[R−555/−512wiId]4, respectively. Similarly, three types of double-stranded mutated oligonucleotides of the 44-bp sequence were also inserted into the same vector to generate the mutated constructs, PGPV2[−555/−512mSp1-1]4, PGPV2[−555/−512 mSp1-2]4, PGPV2[−555/−512mCTf]4 (see Table 1). Oligonucleotides used in Example 3-6 are shown as follows (SEQ ID NOS: 5, 6, and 18-31).
# The present inventors concluded that the region between −555 and −512 relative to the translation start site (−118 and −75 relative to the transcription start site) was sufficient for vitamin D3-induced transcription of the p27^Kip1 gene. Furthermore, both the Sp1-1 site and the CCAAT box in this region were vitamin D3-responsive elements and were required for vitamin D3-induced transcription of the p27^Kip1 gene.
# NF-YA mRNA = assay: RT-PCR of NF-YA mRNA in treated U937 cells; format: cell-based, human; settings: 10^−7 M, time course, primers F1/R and F2/R
# Protocol: RT-PCR of NF-YA mRNA was carried out as follows. […] RT-PCR was performed using the RNA PCR Kit Ver. 2.1 (Takara, Tokyo, Japan). The forward (F) and reverse (R) primers for NF-YA-short and -long were […] (Primer F1) (SEQ ID NO: 12), […] (primer F2) (SEQ ID NO: 13), and […] (primer R) (SEQ ID NO: 14). The forward and reverse primers for G3PDH were […] (SEQ ID NO: 15) and […] (SEQ ID NO: 16). One microgram of total RNA was used for RT-PCR. PCR was performed for 25 and 20 cycles to detect NF-YA subunits and G3PDH, respectively. PCR products were subjected to electrophoresis in a 3% agarose gel. The primers for NF-YA were designed to detect two different isoforms simultaneously and were located in regions that were conserved in the two isoforms (Li, X. Y. et al. (1992) J. Biol. Chem., 267, 8984-8990).
smiles,measurement,setting,value
"C=C1/C(=C\C=C2/CCC[C@]3(C)[C@@H]([C@H](C)CCCC(C)(C)O)CC[C@@H]23)C[C@@H](O)C[C@@H]1O [vitamin D3, 1,25-dihydroxyvitamin D3]",DNA binding activity of NF-I,NF-I,not changed
same,p27^Kip1 mRNA induction,p27^Kip1 mRNA,approximately 4 fold
same,"response to vitamin D3, one copy of the 44 bp fragment",[1],did not respond
same,"stimulatory effect, PGPV2[−555/−512mCTF]4","[1]; 40 h, 10^−7 M",abolished any stimulatory effect
same,"stimulatory effect, PGPV2[−555/−512 mSp1-1]4","[1]; 40 h, 10^−7 M",abolished any stimulatory effect
same,"response to vitamin D3, four copies of the 44 bp fragment (PGPV2[−555/−512wild]4)","[1]; 40 h, 10^−7 M, orientation-dependent",conferred significant response
same,"luciferase activity, PGPV2[−555/−512 mSp1-2]4","[1]; 40 h, 10^−7 M, similar to p27PF and PGPV2[−555/−512wild]4",activated
same,long form of NF-YA mRNA,NF-YA mRNA,decreased gradually
